Structures are written as SMILES.

The test system of one assay is MIAPaCa-2 (pancreas). Description: In vitro cytotoxic activity MTT assay, MIAPaCa-2. The assay is classed as cell-based. As to conditions: Homo sapiens, MIA PaCa-2, 96 hours exposure, read-out: IC50, 50% inhibition of cell proliferation. As to the method:
(§1) Compounds 1-16 were screened for their in vitro cytotoxic activity utilizing a 3-(4,5-dimethyl-thiazol-2-yl)-2,5-diphenyltetrazolium bromide (MTT) assay against selected cancer human cell lines consisting of PC3 (prostate), HCT116 (colon), A375 (melanoma), H1299 (lung), MIAPaCa-2 (pancreas), HL60 (leukemia), MCF7 (breast), MDA-MB-231 (breast) (T. Mosmann, J. Immunol. Meth., 1983, 65, 55-63). The cells were cultured at 37° C. in RMPI1640 medium supplemented with 10% fetal bovine serum, 50 IU/mL penicillin, and 50 μg/mL streptomycin in a 5% CO2 incubator. All cells were sub-cultured 3 times/week by trypsinisation. Viable cells were seeded and allowed to adhere for 12 h before a test drug was added in 96-well plates at an initial density of 1.0×10^5 cells/mL. Tumour cell lines were separately exposed to various concentrations of the tested compounds followed by incubation at a temperature of 37° C. during 96 h inside a medium of fresh RMPI 1640. Cells were subsequently incubated at 37° C. using MTT at 0.5 mg/mL during 4 h. After removal of supernatant, formazan crystals were dissolved in isopropanol and the optical density was measured at 570 nm. CX-4945 was used as a positive control.

A further assay has as its system HCT116 (colon). Description: In vitro cytotoxic activity MTT assay, HCT116. The assay is classed as cell-based. As to conditions: Homo sapiens, HCT-116, 96 hours exposure, read-out: IC50, 50% inhibition of cell proliferation. As to the method: as §1
On the technique in general: Tetrazolium dyes change colour on reduction, which living cells bring about.

A further assay deals with H1299 (lung). Description: In vitro cytotoxic activity MTT assay, H1299. It is filed as cell-based. As to conditions: Homo sapiens, NCI-H1299, 96 hours exposure, read-out: IC50, 50% inhibition of cell proliferation. On the procedure:
as §1

Another assay concerns HL60 (leukemia). Description: In vitro cytotoxic activity MTT assay, HL60. The note with it: Homo sapiens, HL-60, 96 hours exposure, read-out: IC50, 50% inhibition of cell proliferation. It is filed as cell-based. As to the method: as §1
For a further assay, the system named is MDA-MB-231 (breast). As to the kind of experiment: In vitro cytotoxic activity MTT assay, MDA-MB-231. It is filed as cell-based. As to conditions: Homo sapiens, 96 hours exposure, read-out: IC50, 50% inhibition of cell proliferation. On the procedure:
as §1

The subject of another assay is MCF7 (breast). Description: In vitro cytotoxic activity MTT assay, MCF7. It is filed as cell-based. As to conditions: Homo sapiens, 96 hours exposure, read-out: IC50, 50% inhibition of cell proliferation. As to the method:
as §1

The target in a further assay is T1, recombinant human CK2 (Homo sapiens, UniProt P68400).
T1 construct: purchased Millipore
As to the kind of experiment: CK2 Kinase Assay (33P-ATP filter plate). The assay is classed as biochemical. As to conditions: final ATP concentration 15 μM, 10 min at 30° C; read-out: protein kinase CK2 IC50. As to the method: CK2 Kinase Assay was conducted using the protocol as described in Pierre F. et al; J. Med. Chem. 2011, 54, 635-654. The tested compounds in aqueous solution were added at a volume of 10 μL to a reaction mixture comprising 10 μL of assay dilution buffer (ADB; 20 mM MOPS, pH 7.2, 25 mM β-glycerol phosphate, 5 mM EGTA, 1 mM sodium orthovanadate, and 1 mM dithiothreitol), 10 μL of substrate peptide (RRRDDDSDDD, dissolved in ADB at a concentration of 1 mM), 10 μL of recombinant human CK2 (RROP-holoenzyme, 25 ng dissolved in ADB; Millipore). Reactions were initiated by the addition of 10 μL of ATP solution (90% 75 mMMgCl2, 75 μM ATP (final ATP concentration:15 μM) dissolved in ADB; 10% [γ-33P] ATP (stock 1 mCi/100 μL; 3000 Ci/mmol (Perkin-Elmer) and maintained for 10 min at 30° C. The reactions were quenched with 100 μL of 0.75% phosphoric acid and then transferred to and filtered through a phosphor cellulose filter plate (Millipore). After washing each well five times with 0.75% phosphoric acid, the plate was dried under vacuum for 5 min and, following the addition of 15 μL of scintillation fluid to each well, the residual radioactivity was measured using a Wallac luminescence counter. The IC50 values were derived from eight concentrations of test inhibitors.

Another assay concerns A375 (melanoma). As to the kind of experiment: In vitro cytotoxic activity MTT assay, A375. The assay is classed as cell-based. The note with it: Homo sapiens, A-375, 96 hours exposure, read-out: IC50, 50% inhibition of cell proliferation. As to the method: as §1
The subject of a further assay is PC3 (prostate). As to the kind of experiment: In vitro cytotoxic activity MTT assay, PC3. It is filed as cell-based. As to conditions: Homo sapiens, 96 hours exposure, read-out: IC50, 50% inhibition of cell proliferation. On the procedure:
as §1

T1 sequence (P68400 whole entry): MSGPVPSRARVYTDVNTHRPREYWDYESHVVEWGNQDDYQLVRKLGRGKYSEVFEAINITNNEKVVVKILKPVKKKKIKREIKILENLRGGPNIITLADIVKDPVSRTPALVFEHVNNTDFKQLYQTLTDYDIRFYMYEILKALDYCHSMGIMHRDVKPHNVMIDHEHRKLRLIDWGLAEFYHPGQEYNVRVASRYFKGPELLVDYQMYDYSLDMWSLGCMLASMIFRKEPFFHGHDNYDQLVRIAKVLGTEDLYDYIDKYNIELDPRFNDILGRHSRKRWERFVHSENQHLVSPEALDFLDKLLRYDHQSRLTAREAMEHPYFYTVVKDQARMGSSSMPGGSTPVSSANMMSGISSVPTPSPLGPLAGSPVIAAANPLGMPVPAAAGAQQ
T1 sequence (P67870 whole entry partner): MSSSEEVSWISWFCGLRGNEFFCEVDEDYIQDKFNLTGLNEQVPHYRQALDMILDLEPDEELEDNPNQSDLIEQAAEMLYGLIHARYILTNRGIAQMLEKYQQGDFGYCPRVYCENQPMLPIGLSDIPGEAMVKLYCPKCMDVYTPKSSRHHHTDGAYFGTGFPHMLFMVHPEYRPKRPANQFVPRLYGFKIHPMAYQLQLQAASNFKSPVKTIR

`O=c1[nH]ccc2c1[nH]c1c3ccncc3nc(Nc3cccc(Cl)c3)c21` [Compound 1, 6-((3-chlorophenyl)amino)-9,11-dihydro-10H-pyrido[4′,3′:4,5]pyrrolo[3,2-c][1,7]naphthyridin-10-one]: the IC50 was 1200 nM in the assay on MIAPaCa-2 (pancreas); 2100 nM in the assay on HCT116 (colon); 2700 nM in the assay on H1299 (lung); 4600 nM in the assay with HL60 (leukemia); 4000 nM in the assay on MDA-MB-231 (breast); 5400 nM in the assay with MCF7 (breast). Further, the IC50 on recombinant human CK2 amounted to 45 nM; in the assay with A375 (melanoma), 3900 nM; in the assay with PC3 (prostate) it was 1800 nM.

The values above are taken from patent US11891397B1, “Pyrido[4′,3′:4,5]pyrrolo[3,2-c][1,7]naphthyridin-10-one compounds as CK2 inhibitors” (KING FAISAL UNIVERSITY, priority 2023, dated 2024).
